Source: US20250049970A1, “DLL3 TARGETING PEPTIDES AND CONSTRUCTS THEREOF” (MARIANA ONCOLOGY INC., priority 2023, published 2025)
*1 amine or outer side, *2 acyl side, *3 side chain or, on linkers, in order; H or OH if unused. Where a SMILES comes first, the peptide text is derived from it. Bridges are numbered along the chain shown (N, C = ends). [ ]: non-standard residue; d: D form. The star is where a group is joined. ξ: configuration not given here. Ala(piperidin-4-yl) = O=C([C@H](CC1CCN([*:3])CC1)N[*:1])[*:2]; DOTA = O=C(O)CN1CCN(CC(=O)O)CCN(CC(=O)*)CCN(CC(=O)O)CC1; 2Nal = N[C@@H](Cc1ccc2ccccc2c1)C(=O)O; NMetBuAla = CN[C@@H](CC(C)(C)C)C(=O)O; tBuAla = CC(C)(C)C[C@H](N)C(=O)O; Thr(3ξ) = CC(O)[C@H](N)C(=O)O; Chg = N[C@H](C(=O)O)C1CCCCC1; αMeP = C[C@@]1(C(=O)O)CCCN1; CH2 = C([*:1])[*:2]

Tests used:
SHP-77 cells [1] = experiment: Cell binding (total uptake) of [177Lu]Lu-labeled peptide, SHP-77 cells; type: cell-based; conditions: 1 h, 37° C.
Description: (§1) [^177Lu]LuCl3 was received from venders in HCl solution. For every mCi of [^177Lu]LuCl3 added to the reaction vial (1.5 mL Eppendorf vial), ammonium acetate buffer (0.2 M, pH 4.9, 100 μL, containing 1% w/v ascorbic acid and 6% v/v ethanol) and peptide conjugate (1 nmol; also referred to herein as “chelator-peptides”) was added. The pH of the solution was determined to be approximately 5 by using pH strips. The reaction vial was incubated at 80° C., 700 RPM for 17-20 minutes. A sample from the reaction was analyzed by RP-HPLC using an Agilent Infinity II 1260 HPLC to determine reaction completion and radiochemical purity of [^177Lu]Lu-chelator-peptides. HPLC conditions: Waters XBridge BEH C18 Column, 130A, 3.5 μm, 4.6 mm×250 mm; mobile phase: Solvent A=water (with 0.1% formic acid), solvent B=acetonitrile (with 0.1% formic acid). Gradients: 25-45% B in 10 minutes, 45-65% B in 12 minutes, 65-90% in 6 minutes at a flow rate of 0.5 mL/minutes Required amounts of the product was formulated in 1% PBSA for cell studies.
(§2) The study was conducted using SHP-77, CT26.WT, CT26.DLL3, and HEK293.DLL3 cells (Table 9)
(§3) Adherent cell studies: The cells were cultured in appropriate culture media (20 mL) in tissue culture treated T150 flasks at 37° C. and 5% C02. Adherent cells were detached (60-70% confluent) using 5 mL Versene at 37° C. for 3 minutes. After confirming the viability using countess and count of detached cells using Trypan blue, the cells were centrifuged at 4° C. for 5 minutes (1,000 rpm). The cell pellet obtained was washed once with PBS and resuspended in 1% PBSA to obtain the desired cell concentration (5-25 million cells/mL).
as §3, with “Suspension” for “Adherent”, “CO2.” for “C02. Adherent cells were detached (60-70% confluent) using 5 mL Versene at 37° C. for 3 minutes.”, “viability” for “viability using countess”
(§4) Cell numbers used for the assay were in the range of 5 million cells/condition-25 million cells/condition.
(§5) Total uptake: Cells were incubated with 300 μL (0.8 μCi) of the incubation buffer (containing radiolabeled peptide [^177Lu]Lu-test peptide) for 1 hour at 37° C. (Table 10). Post incubation, the cells were pelleted and washed 2 times using cold PBS+1% BSA. The supernatant and washes were combined and counted together as “unbound fraction” in a gamma counter. The cells were then resuspended in 300 μL of 1% PBS+1% BSA and counted in the gamma counter as “bound fraction”.
(§6) In these Tables, “A” represents % s ≤25; “B” represents 25 <% ≤50; “C” represents % >50.

SHP-77 cells [2] = experiment: Internalization of [177Lu]Lu-labeled peptide, SHP-77 cells; type: cell-based; conditions: 1 h, 37° C.
Description: as §1, §2, §3
as §3, with “Suspension” for “Adherent”, “CO2.” for “C02. Adherent cells were detached (60-70% confluent) using 5 mL Versene at 37° C. for 3 minutes.”, “viability” for “viability using countess”
as §4
(§7) Internalization: The resuspended cells in 300 μL of 1% PBSA and counted in the gamma counter as “bound fraction” were collected in 1.5 mL Eppendorf tube and pelleted. The pelleted cells were incubated with 300 μL of 50 mM Glycine pH=2.5 for 3 minutes and then pelleted discarding the supernatant. This process was repeated one more time. The pelleted cells were washed with 300 μL of cold 1% PBSA and then resuspended in 300 μl 0.3M NaOH. This was counted in the gamma counter as “internalized fraction”.
as §6

[3] = system: nude mice bearing SHP-77 tumors; experiment: Ex vivo biodistribution of radiolabeled peptides (% IA/g) in nude mice bearing SHP-77 tumors; conditions: [177Lu]Lu labelling, 24 hours post-injection, intravenous
Description: Mice were intravenously injected (via the lateral tail vein) with a bolus dose of the radiolabeled peptides for ex vivo biodistribution studies when tumor volumes were in range of 200-400 mm^3 for xenograft mice and when age of the mice was 5-7 weeks for tumor naïve mice studies. To assess the amount of radionuclide injected into individual mice the syringe was assayed in a dose calibrator before and after injection for [^177Lu]Lu-peptide, then the injected dose was determined from the weight difference and concentration of the radionuclide solution.
Mice were euthanized at pre-determined time points and selected tissues were resected and collected into pre-weighed tubes. The tubes were then reweighed post resection, the difference giving the weight of each tissue. Radioactivity in each tissue was measured using a gamma counter. Counts were decay corrected to the time of injection and percentage of injected activity per gram (% IA/g) was calculated for each tissue based on the injected activity into each individual mouse. Injected activity was converted to counts based on the sensitivity of the gamma counter. The counts in tissue were then converted to the percentage of injected activity and this was divided by the mass of tissue to give % IA/g.

DLL3 = biological target: T1, DLL3 (Homo sapiens, UniProt Q9NYJ7); experiment: SPR KD, biotinylated human DLL3 on streptavidin chip (Table 8); design: biotin (biotinylated); conditions: biotinylated human DLL3 on streptavidin sensor chip, 25° C., 1:1 binding model; read-out: SPR KD
T1 sequence (Q9NYJ7 27-618): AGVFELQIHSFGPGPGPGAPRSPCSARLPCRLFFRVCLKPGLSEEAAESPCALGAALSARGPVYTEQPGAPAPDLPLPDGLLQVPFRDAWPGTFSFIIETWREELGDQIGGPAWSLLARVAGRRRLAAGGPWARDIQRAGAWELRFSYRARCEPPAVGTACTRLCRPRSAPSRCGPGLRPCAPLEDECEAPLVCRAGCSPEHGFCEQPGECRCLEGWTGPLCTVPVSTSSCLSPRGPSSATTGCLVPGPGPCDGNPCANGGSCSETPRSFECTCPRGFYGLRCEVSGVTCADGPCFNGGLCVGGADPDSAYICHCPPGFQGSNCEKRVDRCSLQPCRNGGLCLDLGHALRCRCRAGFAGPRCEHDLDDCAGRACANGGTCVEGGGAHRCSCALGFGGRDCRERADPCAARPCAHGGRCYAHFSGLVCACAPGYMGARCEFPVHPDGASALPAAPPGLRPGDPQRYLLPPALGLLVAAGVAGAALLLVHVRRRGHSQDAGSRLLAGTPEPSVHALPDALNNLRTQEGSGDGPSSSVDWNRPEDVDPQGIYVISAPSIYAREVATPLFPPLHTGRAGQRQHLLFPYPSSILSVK
From the text: Biotinylated target ligand human DLL3 was immobilized on a streptavidin sensor chip. A reference surface was set up for nonspecific binding and refractive index changes. […] Sensorgram curves were fitted with 1:1 binding model, and affinity and kinetic parameters were obtained using Biacore Insight evaluation 4.0. software.

CT26.DLL3 cells [4] = experiment: Cell binding (total uptake) of [177Lu]Lu-labeled peptide, CT26.DLL3 cells; type: cell-based; conditions: 1 h, 37° C.
Description: as §1, §2, §3, §4, §5, §6

CT26.DLL3 cells [5] = experiment: Internalization of [177Lu]Lu-labeled peptide, CT26.DLL3 cells; type: cell-based; conditions: 1 h, 37° C.
Description: as §1, §2, §3, §4, §7, §6

Row | kidney uptake (% IA/g) [3] | Kd (DLL3) | SMILES | % Binding (SHP-77 cells [1]) | % Internalization (out of bound fraction) (SHP-77 cells [2]) | tumor uptake (% IA/g) [3] | % Binding (CT26.DLL3 cells [4]) | % Internalization (out of bound fraction) (CT26.DLL3 cells [5])
1 | C (“C” represents 0 < % IA/g ≤ 10 in) | < 1 nM | CC(=O)N[C@@H](Cc1c[nH]c2ccccc12)C(=O)N[C@H](C(=O)N(C)[C@@H](CC(C)(C)C)C(=O)N[C@H]1CSCSC[C@@H](C(=O)N[C@@H](Cc2c[nH]c3ccccc23)C(=O)N2CCC[C@@]2(C)C(N)=O)NC(=O)[C@H](CC(=O)O)NC(=O)[C@H](CCCCNC(=O)CN2CCN(CC(=O)O)CCN(CC(=O)O)CCN(CC(=O)O)CC2)NC(=O)[C@H](Cc2ccc3ccccc3c2)NC(=O)[C@H](CC(N)=O)NC(=O)[C@H](CC2CCNCC2)NC1=O)[C@@H](C)O [compound 236, Ac-W-T-(NMe-tBuAla)-C(1)-[3-(4-piperidinyl)-Ala]-N-(2Nal)-Lys(DOTA)-D-C(1)-W-(aMe-P)-CONH2] (Ac-WT[NMetBuAla]C[Ala(piperidin-4-yl)]N[2Nal]K(DOTA)DCW[αMeP]-NH2; linker 4-10 via CH2) | C (% >50) | C (% >50) | B (“B” represents % IA/g > 5 in tumor) | – | –
2 | C (“C” represents 0 < % IA/g ≤ 10 in) | < 1 nM | CC[C@H](C)[C@H](NC(=O)[C@@H](NC(=O)[C@H](Cc1c[nH]c2ccccc12)NC(C)=O)[C@@H](C)O)C(=O)N[C@H]1CSSC[C@@H](C(=O)N[C@@H](Cc2c[nH]c3ccccc23)C(=O)N2CCC[C@H]2C(N)=O)NC(=O)[C@H](CC(=O)O)NC(=O)[C@H](Cc2cnc[nH]2)NC(=O)[C@H](Cc2ccc3ccccc3c2)NC(=O)[C@H](CC(N)=O)NC(=O)[C@H](CCCCNC(=O)CN2CCN(CC(=O)O)CCN(CC(=O)O)CCN(CC(=O)O)CC2)NC1=O [compound 249, Ac-W-T-I-C(3)-Lys(DOTA)-N-(2Nal)-H-D-C(3)-W-P-CONH2] (Ac-WTICK(DOTA)N[2Nal]HDCWP-NH2; disulfide 4-10) | A (% s ≤25) | B (25 <% ≤50) | A (“A” represents 0 < % IA/g ≤ 5 in tumor) | A (% s ≤25) | B (25 <% ≤50)
3 | C (“C” represents 0 < % IA/g ≤ 10 in) | < 1 nM | CC(=O)N[C@@H](Cc1c[nH]c2ccccc12)C(=O)N[C@H](C(=O)N[C@@H](CC(C)(C)C)C(=O)N[C@H]1CSSC[C@@H](C(=O)N[C@@H](Cc2c[nH]c3ccccc23)C(=O)N2CCC[C@H]2C(N)=O)NC(=O)[C@H](CC(=O)O)NC(=O)[C@H](CCCCNC(=O)CN2CCN(CC(=O)O)CCN(CC(=O)O)CCN(CC(=O)O)CC2)NC(=O)[C@H](Cc2ccc3ccccc3c2)NC(=O)[C@H](CC(N)=O)NC(=O)[C@H](CC2CCNCC2)NC1=O)[C@@H](C)O [compound 314, Ac-W-T-(t-Bu-Ala)-C(3)-[3-(4-piperidinyl)-Ala]-N-(2Nal)-Lys(DOTA)-D-C(3)-W-P-CONH2] (Ac-WT[tBuAla]C[Ala(piperidin-4-yl)]N[2Nal]K(DOTA)DCWP-NH2; disulfide 4-10) | B (25 <% ≤50) | B (25 <% ≤50) | A (“A” represents 0 < % IA/g ≤ 5 in tumor) | B (25 <% ≤50) | B (25 <% ≤50)
4 | – | < 1 nM | CC(=O)N[C@@H](Cc1c[nH]c2ccccc12)C(=O)N[C@H](C(=O)N[C@H](C(=O)N[C@H]1CSSC[C@@H](C(=O)N[C@@H](Cc2c[nH]c3ccccc23)C(=O)N2CCC[C@H]2C(N)=O)NC(=O)[C@H](CC(=O)O)NC(=O)[C@H](CCCCNC(=O)CN2CCN(CC(=O)O)CCN(CC(=O)O)CCN(CC(=O)O)CC2)NC(=O)[C@H](Cc2ccc3ccccc3c2)NC(=O)[C@H](CC(N)=O)NC(=O)[C@H](CC2CCNCC2)NC1=O)C1CCCCC1)[C@@H](C)O [compound 324, Ac-W-T-(Chg)-C(3)-[3-(4-piperidinyl)-Ala]-N-(2Nal)-Lys(DOTA)-D-C(3)-W-P-CONH2] (Ac-WT[Chg]C[Ala(piperidin-4-yl)]N[2Nal]K(DOTA)DCWP-NH2; disulfide 4-10) | B (25 <% ≤50) | B (25 <% ≤50) | – | A (% s ≤25) | C (% >50)
5 | C (“C” represents 0 < % IA/g ≤ 10 in) | < 1 nM | CC(=O)NCCCC[C@@H](NC(=O)[C@@H]1CCCN1C(=O)[C@H](Cc1c[nH]c2ccccc12)NC(=O)[C@@H]1CSCSC[C@H](NC(=O)[C@H](CC(C)(C)C)N(C)C(=O)[C@@H](NC(=O)[C@H](Cc2c[nH]c3ccccc23)NC(C)=O)C(C)O)C(=O)N[C@@H](CC2CCNCC2)C(=O)N[C@@H](CC(N)=O)C(=O)N[C@@H](Cc2ccc3ccccc3c2)C(=O)N[C@@H](CCCCNC(=O)CN2CCN(CC(=O)O)CCN(CC(=O)O)CCN(CC(=O)O)CC2)C(=O)N[C@@H](CC(=O)O)C(=O)N1)C(N)=O (stereo partly drawn) [compound 445, Ac-W-T-(NMe-tBuAla)-C(1)-[3-(4-piperidinyl)-Ala]-N-(2Nal)-Lys(DOTA)-D-C(1)-W-P-[D-Lys(Ac)]-CONH2] (Ac-W[Thr(3ξ)][NMetBuAla]C[Ala(piperidin-4-yl)]N[2Nal]K(DOTA)DCWP[dK](Ac)-NH2; linker 4-10 via CH2) | C (% >50) | C (% >50) | B (“B” represents % IA/g > 5 in tumor) | – | –
